# Reference: patent US20230242544A1, “QUINAZOLINE COMPOUNDS, PREPARATION METHODS AND USES THEREOF” (INVENTISBIO CO., LTD., priority 2020, published 2023)
# Assays:
# [1] = biological target: Ba/F3_KRAS^G12D cells (Homo sapiens, UniProt P01116, G12D, cells depend on it); test: Ba/F3 KRAS G12D cell proliferation assay (CellTiter-Glo); type: cell-based; details: treated for 3 days, cell-titer Glo, cell growth inhibition, read-out: BaF3_KRAS^G12D IC50
# Outline: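 KRAS G12D-transduced Ba/F3 cells, IL3-independent and puromycin-selected, seeded at 5×10^3/well overnight, then given serially diluted compound for 3 days. Proliferation read by CellTiter-Glo luminescence. IC50 from a four-parameter logistic fit with Hill slope.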
# [2] = biological target: recombinant human KRAS^G12D protein (Homo sapiens, UniProt P01116, G12D); test: Temperature-dependent Fluorescence (TdF) KRAS G12D protein binding assay; details: 6 μM KRAS^G12D protein, 10 μM compound, Sypro Orange; Kd calculated from the fluorescent shift
# Outline: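 Thermal-shift binding with Sypro Orange: 6 μM KRAS^G12D and 10 μM compound in 25 mM HEPES pH 7.5, 150 mM NaCl, 10 mM MgCl2, 1% DMSO. Binding read as ΔTm with versus without compound; Kd calculated from the degree of fluorescence shift.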
# Sequence of Ba/F3_KRAS^G12D cells (P01116 whole entry G12D): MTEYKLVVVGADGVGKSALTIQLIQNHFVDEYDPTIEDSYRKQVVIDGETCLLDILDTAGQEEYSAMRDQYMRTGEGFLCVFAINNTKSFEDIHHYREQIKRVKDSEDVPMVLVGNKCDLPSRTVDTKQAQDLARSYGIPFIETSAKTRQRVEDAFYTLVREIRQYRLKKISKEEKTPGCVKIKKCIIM
# Sequence of recombinant human KRAS^G12D protein (P01116 1-188 isoform P01116-2 G12D): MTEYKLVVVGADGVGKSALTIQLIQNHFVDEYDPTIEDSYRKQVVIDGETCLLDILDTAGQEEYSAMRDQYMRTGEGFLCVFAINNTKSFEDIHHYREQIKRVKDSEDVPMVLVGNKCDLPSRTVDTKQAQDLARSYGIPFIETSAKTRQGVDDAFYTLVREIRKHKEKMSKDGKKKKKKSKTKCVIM
Structure (SMILES),GI50 [1] [nM],Kd [2] [nM]
Cc1cc(N)nc(-c2c(Cl)cc3c(N4CCN[C@@H](CC#N)C4)nc(OC[C@@H]4C[C@@H](F)CN4C)nc3c2F)c1C(F)(F)F [Compound 135],> 5000,> 5000
Nc1nc2c(-c3c(Cl)cc4c(N5CC6CCC(C5)N6)ncnc4c3F)ccc(F)c2s1 [Compound 140],500 to 5000,500 to 5000
Cc1cc(N)nc(-c2c(Cl)cc3c(N4CC5CCC(C4)N5)nc(OC[C@@]45CCCN4C[C@H](F)C5)nc3c2F)c1C(F)(F)F [Compound 142],< 500,< 500
COc1nc(N2CC3CCC(C2)N3)c2cc(Cl)c(-c3nc(N)cc(C)c3C(F)(F)F)c(F)c2n1 [Compound 144],500 to 5000,> 5000
C#Cc1c(F)ccc2cc(O)cc(-c3cc(Cl)c4c(N5CC6CCC(C5)N6)nc(OC[C@@]56CCCN5C[C@H](F)C6)nc4c3F)c12 [Compound 168],< 500,< 500

# The remaining lines, values ahead:
GI50 [1] [nM],Kd [2] [nM],Structure (SMILES)
500 to 5000,< 500,Cc1cccc2cc(F)cc(-c3c(Cl)cc4c(N5CC6CCC(C5)N6)nc(OC[C@@]56CCCN5C[C@H](F)C6)nc4c3F)c12 [Compound 137]
500 to 5000,< 500,Nc1nc2c(-c3c(Cl)cc4c(N5CC6CCC(C5)N6)nc(OC[C@@]56CCCN5C[C@H](F)C6)nc4c3F)ccc(C(F)(F)F)c2s1 [Compound 143]
< 500,< 500,C#Cc1c(F)ccc2cc(O)cc(-c3c(Cl)cc4c(N5CC6CCC(C5)N6)nc(OC[C@@]56CCCN5C[C@H](F)C6)nc4c3F)c12 [Compound 146]
< 500,< 500,C#Cc1c(F)ccc2cc(O)cc(-c3c(OC)cc4c(N5CC6CCC(C5)N6)nc(OC[C@@]56CCCN5C[C@H](F)C6)nc4c3F)c12 [Compound 163]
